Measurements published in US10842878B2, “Degradation of Bruton's tyrosine kinase (BTK) by conjugation of BTK inhibitors with E3 ligase ligand and methods of use” (Dana-Farber Cancer Institute, Inc., priority 2016, dated 2020).

Molecular target: T1, BTK (Homo sapiens, UniProt Q06187)
T1 construct: protein lysate harvest and Western blotting analysis of BTK, Aurora A, and α-tubulin levels; endogenous in cells; host or cells: MOLM14 cells
Assay: Cell assay and Western blotting analysis of BTK levels in MOLM14 cells
Assay type: cell-based
Conditions: MOLM14 cells treated with 40 nM, 200 nM, 1 μM for 4 or 12 hours (FIG. 1: 4 hours); DMSO control; Aurora A and α-tubulin also blotted
Experimental: MOLM14 cells were treated with DMSO or with 40 nM, 200 nM, 1 μM of a BTK bifunctional inhibitor compound of the disclosure for 4 or 12 hours, followed by protein lysate harvest and Western blotting analysis of BTK, Aurora A, and α-tubulin levels.
Cells are lysed using RIPA buffer supplemented with protease inhibitor cocktail (Roche) and phosSTOP phosphatase inhibitor cocktail (Roche) on ice for 15 minutes. The lysates are spun at 20,000×g for 15 minutes on 4° C. and protein concentration is determined using BCA assay (Pierce). The following primary antibodies are used in this study: BTK, GADPH, tubulin and Aurora A kinase (all from Cell Signaling Technology). Blots are imaged using fluorescence-labeled secondary antibodies (LI-COR) on the OdysseyCLxImager (LI-COR). Quantification of band intensities is performed using OdysseyCLx software (LI-COR).

T1 sequence (Q06187 whole entry): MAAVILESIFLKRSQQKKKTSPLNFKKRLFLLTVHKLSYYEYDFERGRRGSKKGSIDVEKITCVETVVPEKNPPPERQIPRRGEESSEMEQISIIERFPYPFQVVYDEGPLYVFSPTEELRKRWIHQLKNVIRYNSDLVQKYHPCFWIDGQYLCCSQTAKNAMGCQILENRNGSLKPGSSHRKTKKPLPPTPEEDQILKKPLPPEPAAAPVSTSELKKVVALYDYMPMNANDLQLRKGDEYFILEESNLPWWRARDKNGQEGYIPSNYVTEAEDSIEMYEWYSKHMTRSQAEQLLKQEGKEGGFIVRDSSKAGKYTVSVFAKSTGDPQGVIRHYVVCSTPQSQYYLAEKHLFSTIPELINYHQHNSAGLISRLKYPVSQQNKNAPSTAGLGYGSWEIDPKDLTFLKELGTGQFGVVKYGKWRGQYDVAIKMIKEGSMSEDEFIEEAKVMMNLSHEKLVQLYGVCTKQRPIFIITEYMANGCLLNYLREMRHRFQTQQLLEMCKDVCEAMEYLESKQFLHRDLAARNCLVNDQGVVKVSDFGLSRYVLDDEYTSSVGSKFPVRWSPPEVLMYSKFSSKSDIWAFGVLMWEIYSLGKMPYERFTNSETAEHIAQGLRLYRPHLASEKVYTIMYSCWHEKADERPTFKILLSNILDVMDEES

BTK degradation (Western blotting analysis of BTK levels): showed BTK degradation
Structure (SMILES): Cc1c(NC(=O)c2ccc(C(C)(C)C)cc2)cccc1-c1cn(C)c(=O)c(Nc2ccc(C(=O)N3CCN(CCOCCOCCNC(=O)CNc4cccc5c4C(=O)N(C4CCC(=O)NC4=O)C5=O)CC3)cc2)n1 (stereo not shown) [Compound I-5, 4-(tert-butyl)-N-(3-(6-((4-(4-(2-(2-(2-(2-((2-(2,6-dioxopiperidin-3-yl)-1,3-dioxoisoindolin-4-yl)amino)acetamido)ethoxy)ethoxy)ethyl)piperazine-1-carbonyl)phenyl)amino)-4-methyl-5-oxo-4,5-dihydropyrazin-2-yl)-2-methylphenyl)benzamide]
